Values after ≈ are worked out from the molar mass of the structure shown.
Assays:
Test in all cases: antimicrobial activity, MIC, standard process of Japan Society of Chemotherapy
Type in all cases: cell-based
[1] = test system: E. coli, NIHJ
Experimental: (§1) The antimicrobial activities of the compounds of the present invention were determined according to a standard process designated by the Japan Society of Chemotherapy and the minimum growth inhibitory concentrations (MIC) (μg/ml) the compounds were determined.

[2] = test system: Pr. mirabilis, IF03849; conditions: for minimum growth inhibitory concentration (MIC): Pr. mirabilis
Experimental: as §1

[3] = test system: Pr. vulgaris, 3167; conditions: for minimum growth inhibitory concentration (MIC): Pr. vulgaris
Experimental: as §1

[4] = test system: Ps. aeruginosa, 2063; conditions: for minimum growth inhibitory concentration (MIC): Ps. aeruginosa
Experimental: as §1

[5] = test system: Ps. aeruginosa, 2128; conditions: for minimum growth inhibitory concentration (MIC): Ps. aeruginosa
Experimental: as §1

[6] = test system: Ps. cepacia, IID1340; conditions: for minimum growth inhibitory concentration (MIC): Ps. cepacia
Experimental: as §1

[7] = test system: Ps. maltophilia, IID1275; conditions: for minimum growth inhibitory concentration (MIC): Ps. maltophilia
Experimental: as §1

[8] = test system: S. aureus, 209P
Experimental: as §1

[9] = test system: S. epidermidis, 56500; conditions: for minimum growth inhibitory concentration (MIC): S. epidermidis
Experimental: as §1

[10] = test system: Ser. marcescens, 13001; conditions: for minimum growth inhibitory concentration (MIC): Ser. marcescens
Experimental: as §1

[11] = test system: Sh. flexneri, 2a5503
Experimental: as §1

[12] = test system: Str. faecalis, ATCC 19433; conditions: for minimum growth inhibitory concentration (MIC): Str. faecalis
Experimental: as §1

[13] = test system: Str. pyogenes, G-36; conditions: for minimum growth inhibitory concentration (MIC): Str. pyogenes
Experimental: as §1

CCn1cc(C(=O)O)c(=O)c2cc(F)c(N3CCC(C4(N)CC4)C3)c(F)c21 (stereo not shown) [Example 16, 7-[3-(1-aminocyclopropyl)-1-pyrrolidinyl]-1-ethyl-6,8-difluoro-1,4-dihydro-4-oxoquinoline-3-carboxylic acid]
MIC ([1]; Escherichia coli, read-out: minimum growth inhibitory concentration (MIC)): ≤ 0.05 µg/mL
MIC ([2]; Proteus mirabilis, IF03849, Pr. mirabilis, read-out: minimum growth inhibitory concentration (MIC)): 0.39 µg/mL (≈ 1.03 µM)
MIC ([3]; Proteus vulgaris, 3167, Pr. vulgaris, read-out: minimum growth inhibitory concentration (MIC)): 0.2 µg/mL (≈ 0.53 µM)
MIC ([4]; Pseudomonas aeruginosa, 2063, Ps. aeruginosa, read-out: minimum growth inhibitory concentration (MIC)): 1.56 µg/mL (≈ 4.13 µM)
MIC ([5]; Pseudomonas aeruginosa, 2128, Ps. aeruginosa, read-out: minimum growth inhibitory concentration (MIC)): 0.39 µg/mL (≈ 1.03 µM)
MIC ([6]; Burkholderia cepacia, IID1340, Ps. cepacia, read-out: minimum growth inhibitory concentration (MIC)): 0.78 µg/mL (≈ 2.07 µM)
MIC ([7]; Stenotrophomonas maltophilia, IID1275, Ps. maltophilia, read-out: minimum growth inhibitory concentration (MIC)): 0.39 µg/mL (≈ 1.03 µM)
MIC ([8]; Staphylococcus aureus, read-out: minimum growth inhibitory concentration (MIC)): ≤ 0.05 µg/mL
MIC ([9]; Staphylococcus epidermidis, 56500, S. epidermidis, read-out: minimum growth inhibitory concentration (MIC)): 0.2 µg/mL (≈ 0.53 µM)
MIC ([10]; Serratia marcescens, 13001, Ser. marcescens, read-out: minimum growth inhibitory concentration (MIC)): 0.39 µg/mL (≈ 1.03 µM)
MIC ([11]; Shigella flexneri, read-out: minimum growth inhibitory concentration (MIC)): ≤ 0.05 µg/mL
MIC ([12]; Enterococcus faecalis, ATCC19433, Str. faecalis, read-out: minimum growth inhibitory concentration (MIC)): 0.39 µg/mL (≈ 1.03 µM)
MIC ([13]; Streptococcus pyogenes, G36, Str. pyogenes, read-out: minimum growth inhibitory concentration (MIC)): 0.2 µg/mL (≈ 0.53 µM)

CC(N)C1CCN(c2nc3c(cc2F)c(=O)c(C(=O)O)cn3C2CC2)C1 (stereo not shown) [Example 18, 7-[3-(1-Aminoethyl)-1-pyrrolidinyl]-1-1-cyclopropyl-6-fluoro-1,4-dihydro-4-oxo-1,8-naphthylidine-3-carboxylic acid]
minimum growth inhibitory concentration (MIC) [1]: ≤ 0.05 µg/mL
minimum growth inhibitory concentration (MIC) [2]: 0.20 µg/mL
minimum growth inhibitory concentration (MIC) [3]: 0.10 µg/mL
minimum growth inhibitory concentration (MIC) [4]: 0.39 µg/mL
minimum growth inhibitory concentration (MIC) [5]: 0.20 µg/mL
minimum growth inhibitory concentration (MIC) [6]: 0.39 µg/mL
minimum growth inhibitory concentration (MIC) [7]: 0.20 µg/mL
minimum growth inhibitory concentration (MIC) [8]: ≤ 0.05 µg/mL
minimum growth inhibitory concentration (MIC) [9]: ≤ 0.05 µg/mL
minimum growth inhibitory concentration (MIC) [10]: 0.20 µg/mL
minimum growth inhibitory concentration (MIC) [11]: ≤ 0.05 µg/mL
minimum growth inhibitory concentration (MIC) [12]: 0.20 µg/mL
minimum growth inhibitory concentration (MIC) [13]: 0.39 µg/mL

CC(N)C1CCN(c2nc3c(cc2F)c(=O)c(C(=O)O)cn3C2CC2)C1 (stereo not shown) [Example 19]
minimum growth inhibitory concentration (MIC) [1]: ≤ 0.05 µg/mL
minimum growth inhibitory concentration (MIC) [2]: 0.10 µg/mL
minimum growth inhibitory concentration (MIC) [3]: ≤ 0.05 µg/mL
minimum growth inhibitory concentration (MIC) [4]: 0.20 µg/mL
minimum growth inhibitory concentration (MIC) [5]: ≤ 0.05 µg/mL
minimum growth inhibitory concentration (MIC) [6]: 0.39 µg/mL
minimum growth inhibitory concentration (MIC) [7]: 0.20 µg/mL
minimum growth inhibitory concentration (MIC) [8]: ≤ 0.05 µg/mL
minimum growth inhibitory concentration (MIC) [9]: ≤ 0.05 µg/mL
minimum growth inhibitory concentration (MIC) [10]: ≤ 0.05 µg/mL
minimum growth inhibitory concentration (MIC) [11]: ≤ 0.05 µg/mL
minimum growth inhibitory concentration (MIC) [12]: 0.10 µg/mL
minimum growth inhibitory concentration (MIC) [13]: 0.20 µg/mL

CCC(N)C1CCN(c2c(F)cc3c(=O)c(C(=O)O)cn(C4CC4)c3c2F)C1 (stereo not shown) [Example 22]
minimum growth inhibitory concentration (MIC) [1]: ≤ 0.05 µg/mL
minimum growth inhibitory concentration (MIC) [2]: 0.10 µg/mL
minimum growth inhibitory concentration (MIC) [3]: ≤ 0.05 µg/mL
minimum growth inhibitory concentration (MIC) [4]: 0.39 µg/mL
minimum growth inhibitory concentration (MIC) [5]: 0.20 µg/mL
minimum growth inhibitory concentration (MIC) [6]: 0.20 µg/mL
minimum growth inhibitory concentration (MIC) [7]: 0.20 µg/mL
minimum growth inhibitory concentration (MIC) [8]: ≤ 0.05 µg/mL
minimum growth inhibitory concentration (MIC) [9]: ≤ 0.05 µg/mL
minimum growth inhibitory concentration (MIC) [10]: 0.10 µg/mL
minimum growth inhibitory concentration (MIC) [11]: ≤ 0.05 µg/mL
minimum growth inhibitory concentration (MIC) [12]: 0.20 µg/mL
minimum growth inhibitory concentration (MIC) [13]: 0.20 µg/mL

— patent publication US5416222A, “3-pyrrolidine methanamines wherein the alpha-carbon is substituted by 1 or 2 lower alkyl groups which are intermediates for pyridone-carboxylic acid derivatives” (Daiichi Seiyaku Co., Ltd., priority 1985, dated 1995)
